The assay can be described thus: Oxidation reducing capability for glyoxal by hydrogen peroxide-luminol chemiluminescence. Conditions: added to 1.0 mM, 10.0 mM and 100.0 mM glyoxal; compared to Comparative Example 1; n=3. The method, then: At the elapse of 30 seconds, 1000 μl of hydrogen peroxide was further mixed therein. Then, the chemiluminescence (CL) count (number of photons) was identified continuously for 150 seconds. Measurement was initiated when the CL counts came to 200 s per second (total time: 180 seconds). For the confirmation and measurement of the CL counts, a CL analyzer (product of TOHOKU ELECTRONIC INDUSTRIAL CO., LTD.) was employed. Using the dialysis solution preparation water of Example 1 and Comparative Example 1 obtained in Experiment 1, an evaluation experiment on the oxidation reducing capability for glyoxal was conducted. An evaluation experiment (n=3) employing hydrogen peroxide-luminol chemiluminescence similar to that of Experiment 1 was carried out, provided that the test liquid used was prepared by adding 45 μl of each dialysis solution preparation water into 45 μl of glyoxal with the concentration of 1.0 mM, 10.0 mM and 100.0 mM such that the total amount of the test liquid was 90 μl. For a reference example, a similar experiment (n=3) was carried out employing ascorbic acid (well known as a free radical scavenge substance). The test liquid was prepared such that the ascorbic acid was added to attain 1.0 μg/ml for […].

With `O=C1O[C@H]([C@@H](O)CO)C(O)=C1O` [ascorbic acid], the CL total count result is listed as “reduced significantly”.

The record behind these values is patent US20090045121A1, “Dialysis Solution Preparation Water, Dialysis Solution Using Such Water, Method of Producing Dialysis Solution, and Dialysis Equipment” (priority 2006, published 2009).
